Results published in US5605895A, “Cephalosporin antibiotics and processes for preparation thereof” (Lucky, Ltd., priority 1993, dated 1997).
In brackets after ≈: the same amount, converted by molar mass. Where two headings read alike, the source gives them in different places.

How the values were obtained:
[1] = system: P. aeruginosa 10145; experiment: Minimum inhibitory concentration, agar dilution; format: cell-based; details: Pseudomonas aeruginosa, Muller-Hinton agar, 10^7 CFU per ml, 37° C., 20 hours
Protocol: (§1) The minimum inhibitory concentration was determined by diluting the test compounds according to 2-fold dilution, suspending them in M uller-Hinton agar medium, inoculating the test strains having 10^7 CFU per 1 ml into the medium and then culturing the medium at 37° C. for 20 hours.

[2] = system: P. aeruginosa 6065Y; experiment: Minimum inhibitory concentration, agar dilution; format: cell-based; details: Pseudomonas aeruginosa, 20 h, read-out: Minimum Inhibitory Concentration
Protocol: as §1

[3] = system: A. calcoaceticus 15473A; experiment: Minimum inhibitory concentration, agar dilution; format: cell-based; details: Acinetobacter calcoaceticus, Muller-Hinton agar, 10^7 CFU per ml, 37° C., 20 hours
Protocol: as §1

[4] = system: E. coli 3190Y; experiment: Minimum inhibitory concentration, agar dilution; format: cell-based; details: Escherichia coli, read-out: Minimum Inhibitory Concentration
Protocol: as §1

[5] = system: S. aureus 6538pA; experiment: Minimum inhibitory concentration, agar dilution; format: cell-based; details: Staphylococcus aureus, Muller-Hinton agar, 10^7 CFU per ml, 37° C., 20 hours
Protocol: as §1

[6] = system: E. coli TEM9 2639E; experiment: Minimum inhibitory concentration, agar dilution; format: cell-based; details: Escherichia coli, TEM92639E, 20 h, read-out: Minimum Inhibitory Concentration
Protocol: as §1

[7] = system: S. typhimurium 14028A; experiment: Minimum inhibitory concentration, agar dilution; format: cell-based; details: Salmonella enterica, read-out: Minimum Inhibitory Concentration
Protocol: as §1

[8] = system: S. faecalis 29212A; experiment: Minimum inhibitory concentration, agar dilution; format: cell-based; details: Enterococcus faecalis, read-out: Minimum Inhibitory Concentration
Protocol: as §1

[9] = system: K. aerogenes 1976E; experiment: Minimum inhibitory concentration, agar dilution; format: cell-based; details: Klebsiella aerogenes, Muller-Hinton agar, 10^7 CFU per ml, 37° C., 20 hours
Protocol: as §1

[10] = system: E. coli 10536; experiment: Minimum inhibitory concentration, agar dilution; format: cell-based; details: read-out: Minimum Inhibitory Concentration
Protocol: as §1

[11] = system: S. marcescens 1826E; experiment: Minimum inhibitory concentration, agar dilution; format: cell-based; details: Serratia marcescens, Muller-Hinton agar, 10^7 CFU per ml, 37° C., 20 hours
Protocol: as §1

[12] = system: S. aureus giorigio; experiment: Minimum inhibitory concentration, agar dilution; format: cell-based; details: Staphylococcus aureus, Muller-Hinton agar, 10^7 CFU per ml, 37° C., 20 hours
Protocol: as §1

[13] = system: E. coli TEM5 3739E; experiment: Minimum inhibitory concentration, agar dilution; format: cell-based; details: Escherichia coli, TEM53739E, 20 h, read-out: Minimum Inhibitory Concentration
Protocol: as §1

[14] = system: E. coli TEM1 1193E; experiment: Minimum inhibitory concentration, agar dilution; format: cell-based; details: Escherichia coli, TEM11193E, 20 h, read-out: Minimum Inhibitory Concentration
Protocol: as §1

[15] = system: E. cloacae 1194E; experiment: Minimum inhibitory concentration, agar dilution; format: cell-based; details: Enterobacter cloacae, read-out: Minimum Inhibitory Concentration
Protocol: as §1

[16] = system: P. aeruginosa 1912E; experiment: Minimum inhibitory concentration, agar dilution; format: cell-based; details: Pseudomonas aeruginosa, 20 h, read-out: Minimum Inhibitory Concentration
Protocol: as §1

[17] = Pharmacokinetic properties in SD rats; format: in vivo; details: rat; SD rats (male), intravenous, 20 mg/kg; blood, biological assay (agar well method)
Protocol: The pharmacokinetic properties of the compound of the present invention were determined using SD rats (.male.) weighing 220 to 340 g. Specifically, the test samples were administered in intravenous route in an amount of 20 mg/kg to 2 to 5 test animals. Blood was taken from femoral vein every hours after the administration and then subjected to a biological assay using agar well method to measure the blood concentration. The results of pharmacokinetic properties calculated from the above blood concentration are described in the following Table 3.

[18] = Escherichia coli, E. coli 10536, Muller-Hinton agar, 10^7 CFU per ml, 37° C., 20 hours
[19] = E. coli 3190Y, Muller-Hinton agar, 10^7 CFU per ml, 37° C., 20 hours
[20] = E. cloacae 1194E, Muller-Hinton agar, 10^7 CFU per ml, 37° C., 20 hours
[21] = S. typhimurium 14028A, Muller-Hinton agar, 10^7 CFU per ml, 37° C., 20 hours
[22] = S. faecalis 29212A, Muller-Hinton agar, 10^7 CFU per ml, 37° C., 20 hours

Structure (SMILES)	MIC [1] [µg/mL]	MIC [2] [µg/mL]	MIC [3] [µg/mL]	MIC ([4]; 3190Y, 20 h) [µg/mL]	MIC [5] [µg/mL]	MIC [6] [µg/mL]	MIC ([7]; TYPHIMURIUM, 20 h) [µg/mL]	MIC ([8]; 29212A, 20 h) [µg/mL]	MIC [9] [µg/mL]	MIC [11] [µg/mL]	MIC [12] [µg/mL]	MIC [13] [µg/mL]	MIC [14] [µg/mL]	MIC ([15]; 1194E, 20 h) [µg/mL]	MIC [16] [µg/mL]	MIC [10, 18] [µg/mL]	AUC [17] [ng·h/mL]	half-life [17] [min]	MIC [4, 19] [µg/mL]	MIC [7, 21] [µg/mL]	also measured
CC(C)(O/N=C(\C(=O)N[C@@H]1C(=O)N2C(C(=O)[O-])=C(C[n+]3ccccc3)CS[C@H]12)c1csc(N)n1)C(=O)O [CAZ, Ceftazidime, reference compound]	2 (≈ 3.66 µM)	32 (≈ 58.5 µM)	2 (≈ 3.66 µM)	0.063 (≈ 0.115 µM)	16 (≈ 29.3 µM)	> 128	0.25 (≈ 0.457 µM)	> 128	0.25 (≈ 0.457 µM)	0.25 (≈ 0.457 µM)	4 (≈ 7.32 µM)	8 (≈ 14.6 µM)	0.25 (≈ 0.457 µM)	128 (≈ 234 µM)	1 (≈ 1.83 µM)	–	–	–	–	–	MIC ([10]; Escherichia coli, 10536, 20 h): 0.13 µg/mL (≈ 0.238 µM)
Cc1c(N)nc(SCC2=C(C(=O)[O-])N3C(=O)C(NC(=O)/C(=N\OC(C(=O)O)c4ccc(O)c(O)c4)c4csc(N)n4)[C@H]3SC2)[n+](N)c1N (stereo partly drawn) [I-1(a), 7-[(Z)-2-(2-aminothiazol-4-yl)-2-(α-carboxy-3,4-dihydroxybenzyloxyimino)acetamido]-3-(5-methyl-1,4,6-triaminopyrimidinium-2-yl)thiomethyl-3-cephem-4-carboxylate]	0.25 (≈ 0.348 µM)	0.5 (≈ 0.696 µM)	0.5 (≈ 0.696 µM)	0.063 (≈ 0.0877 µM)	0.25 (≈ 0.348 µM)	1 (≈ 1.39 µM)	0.063 (≈ 0.0877 µM)	16 (≈ 22.3 µM)	0.13 (≈ 0.181 µM)	0.25 (≈ 0.348 µM)	0.13 (≈ 0.181 µM)	0.25 (≈ 0.348 µM)	0.063 (≈ 0.0877 µM)	1 (≈ 1.39 µM)	0.5 (≈ 0.696 µM)	0.013 (≈ 0.0181 µM)	52500	40	–	–	–
C[n+]1c(N)cc(N)nc1SCC1=C(C(=O)[O-])N2C(=O)C(NC(=O)C(=NOC(C(=O)O)c3ccc(O)c(O)c3)c3csc(N)n3)C2SC1 (stereo not drawn) [I-3(a), 7-[(Z)-2-(2-aminothiazol-4-yl)-2-(α-carboxy-3,4-dihydroxybenzyloximio)acetamido]-3-(4,6-diamino-1-methylpyrimidinium-2-yl)thiomethyl-3-cephem-4-carboxylate]	0.5 (≈ 0.71 µM)	1 (≈ 1.42 µM)	0.5 (≈ 0.71 µM)	–	0.5 (≈ 0.71 µM)	4 (≈ 5.68 µM)	0.063 (≈ 0.0895 µM)	32 (≈ 45.5 µM)	0.25 (≈ 0.355 µM)	0.5 (≈ 0.71 µM)	0.5 (≈ 0.71 µM)	0.5 (≈ 0.71 µM)	0.063 (≈ 0.0895 µM)	–	0.5 (≈ 0.71 µM)	–	55400	53	0.031 (≈ 0.0441 µM)	–	MIC ([10]; Escherichia coli, 10536, 20 h): 0.063 µg/mL (≈ 0.0895 µM); MIC [15, 20]: 8 µg/mL (≈ 11.4 µM)
Nc1cc[n+](N)c(SCC2=C(C(=O)[O-])N3C(=O)C(NC(=O)C(=NOC(C(=O)O)c4ccc(O)c(O)c4)c4csc(N)n4)C3SC2)n1 (stereo not drawn) [I-4(a), 7-[(Z)-2-(2-aminothiazol-4-yl)-2-(α-carboxy-3,4-dihydroxybenzyloxyimino)acetamide]-3-(1,4-diaminopyrimidinium-2-yl)thiomethyl-3-cephem-4-carboxylate]	0.25 (≈ 0.362 µM)	0.5 (≈ 0.725 µM)	0.25 (≈ 0.362 µM)	0.063 (≈ 0.0913 µM)	1 (≈ 1.45 µM)	1 (≈ 1.45 µM)	–	–	0.13 (≈ 0.188 µM)	0.25 (≈ 0.362 µM)	0.5 (≈ 0.725 µM)	0.5 (≈ 0.725 µM)	0.063 (≈ 0.0913 µM)	1 (≈ 1.45 µM)	0.25 (≈ 0.362 µM)	0.016 (≈ 0.0232 µM)	52900	50	–	0.031 (≈ 0.0449 µM)	MIC [8, 22]: 64 µg/mL (≈ 92.8 µM)
C[n+]1ccc(N)nc1SCC1=C(C(=O)[O-])N2C(=O)C(NC(=O)/C(=N\OC(C(=O)O)c3ccc(O)c(O)c3)c3csc(N)n3)[C@H]2SC1 (stereo partly drawn) [I-5(a), 7-[(Z)-2-(2-aminothiazol-4-yl)-2-(α-carboxy-3,4-dihydroxybenzyloxyimino)acetamido]-3-(4-amino-1-methylpyrimidinium-2-yl)thiomethyl-3-cephem-4-carboxylate]	0.5 (≈ 0.726 µM)	1 (≈ 1.45 µM)	0.5 (≈ 0.726 µM)	0.063 (≈ 0.0915 µM)	0.5 (≈ 0.726 µM)	2 (≈ 2.9 µM)	–	–	0.25 (≈ 0.363 µM)	0.5 (≈ 0.726 µM)	0.25 (≈ 0.363 µM)	0.5 (≈ 0.726 µM)	0.063 (≈ 0.0915 µM)	4 (≈ 5.81 µM)	0.5 (≈ 0.726 µM)	0.031 (≈ 0.045 µM)	43600	39	–	0.031 (≈ 0.045 µM)	MIC [8, 22]: 64 µg/mL (≈ 92.9 µM)
C[n+]1cc(C(=O)O)c(N)nc1SCC1=C(C(=O)[O-])N2C(=O)C(NC(=O)/C(=N\OC(C(=O)O)c3ccc(O)c(O)c3)c3csc(N)n3)[C@H]2SC1 (stereo partly drawn) [I-6(a), 7-[(Z)-2-(2-aminothiazol-4-yl)-2-(α-carboxy-3,4-dihydroxybenzyloxyimino)acetamido]-3-(4-amino-1-methyl-5-carboxypyrimidinium-2-yl)thiomethyl-3-cephem-4-carboxylate]	0.25 (≈ 0.341 µM)	0.5 (≈ 0.682 µM)	0.5 (≈ 0.682 µM)	0.13 (≈ 0.177 µM)	2 (≈ 2.73 µM)	4 (≈ 5.46 µM)	–	32 (≈ 43.7 µM)	0.25 (≈ 0.341 µM)	1 (≈ 1.36 µM)	2 (≈ 2.73 µM)	0.25 (≈ 0.341 µM)	0.063 (≈ 0.086 µM)	4 (≈ 5.46 µM)	0.25 (≈ 0.341 µM)	0.031 (≈ 0.0423 µM)	37800	32	–	0.031 (≈ 0.0423 µM)	–
C[n+]1cc(CS(=O)(=O)O)c(N)nc1SCC1=C(C(=O)[O-])N2C(=O)C(NC(=O)/C(=N\OC(C(=O)O)c3ccc(O)c(O)c3)c3csc(N)n3)[C@H]2SC1 (stereo partly drawn) [I-7(a), 7-[(Z)-2-(2-aminothiazol-4-yl)-2-(α-carboxy-3,4-dihydroxybenzyloxyimino)acetamido]-3-(1-methyl-4-amino-5-sulfomethylpyrimidinium-2-yl)thiomethyl-3-cephem-4-carboxylate]	0.25 (≈ 0.319 µM)	–	0.5 (≈ 0.639 µM)	0.063 (≈ 0.0805 µM)	2 (≈ 2.55 µM)	4 (≈ 5.11 µM)	0.5 (≈ 0.639 µM)	32 (≈ 40.9 µM)	0.5 (≈ 0.639 µM)	1 (≈ 1.28 µM)	2 (≈ 2.55 µM)	0.5 (≈ 0.639 µM)	0.13 (≈ 0.166 µM)	–	–	0.031 (≈ 0.0396 µM)	53100	48	–	–	MIC [15, 20]: 8 µg/mL (≈ 10.2 µM)
Nc1nc(C(=NOC(C(=O)O)c2ccc(O)c(O)c2)C(=O)NC2C(=O)N3C(C(=O)[O-])=C(CSc4nc(N)c5c([n+]4N)CCC5)CSC23)cs1 (stereo not drawn) [I-8(a), 7-[(Z)-2-(2-aminothiazol-4-yl)-2-(α-carboxy-3,4-dihydroxybenzyloxyimino)acetamido]-3-(1,4-diamino-1,5,6,7-tetrahydrocyclopentapyrimidin-2-yl) thiomethyl-3-cephem-4-carboxylate]	0.5 (≈ 0.685 µM)	1 (≈ 1.37 µM)	0.25 (≈ 0.343 µM)	–	0.5 (≈ 0.685 µM)	1 (≈ 1.37 µM)	0.063 (≈ 0.0863 µM)	16 (≈ 21.9 µM)	0.13 (≈ 0.178 µM)	0.5 (≈ 0.685 µM)	0.063 (≈ 0.0863 µM)	0.5 (≈ 0.685 µM)	0.063 (≈ 0.0863 µM)	2 (≈ 2.74 µM)	0.5 (≈ 0.685 µM)	0.031 (≈ 0.0425 µM)	64500	53	0.031 (≈ 0.0425 µM)	–	–
Cn1c(N)n[n+]2c(SCC3=C(C(=O)[O-])N4C(=O)C(NC(=O)C(=NOC(C(=O)O)c5ccc(O)c(O)c5)c5csc(N)n5)[C@H]4SC3)nc(N)cc12 (stereo partly drawn) [I-10(a), 7-[(Z)-2-(2-aminothiazol-4-yl)-2-(α-carboxy-3,4-dihydroxybenzyloxyimino)acetamido]-3-(2,7-diamino-1-methyl[1,2,4]triazolo[1,5-c]pyrimidinium-5-yl)thiomethyl-3-cephem-4-carboxylate]	0.25 (≈ 0.336 µM)	0.5 (≈ 0.672 µM)	0.5 (≈ 0.672 µM)	–	0.5 (≈ 0.672 µM)	1 (≈ 1.34 µM)	0.063 (≈ 0.0847 µM)	–	0.13 (≈ 0.175 µM)	0.25 (≈ 0.336 µM)	0.25 (≈ 0.336 µM)	0.25 (≈ 0.336 µM)	0.063 (≈ 0.0847 µM)	1 (≈ 1.34 µM)	0.5 (≈ 0.672 µM)	0.016 (≈ 0.0215 µM)	66000	58	0.031 (≈ 0.0417 µM)	–	MIC [8, 22]: 8 µg/mL (≈ 10.8 µM)
